Measured values reported in article PMC6683117 (2019).

Test system: KRAS G12D mutated nucleotide (GAT), biotinylated hairpin (DNA, hairpin) TACATCTGATGGCGTATTAAGTTTTCTTAATACGCCATCAGATGTA
Test: SPR (Biacore X100), kinetic kd/ka
Settings: 150 mM NaCl; HBS-EP (10 mM HEPES, 3 mM EDTA, 0.005% P20), 0.1% DMSO, pH 7.4, 25 °C; printed ka, kd give 3.04 × 10^-8

- KD: 0.304 µM
Compound: CN(C)CCCNC(=O)CCNC(=O)c1cc(NC(=O)c2nc(NC(=O)c3nc(NC(=O)CCNC(=O)c4cc(NC(=O)c5nc(NC(=O)CCCNC(=O)c6cc(NC(=O)c7cc(NC(=O)c8cc(NC(=O)CCNC(=O)c9cc(NC(=O)c%10nc(NC(=O)CCNC(=O)CCCC[C@@H]%11SC[C@@H]%12NC(=O)NC%12%11)cn%10C)cn9C)cn8C)cn7C)cn6C)cn5C)cn4C)cn3C)cn2C)cn1C (stereo partly shown)
